Measurements reported in US20240376084A1, “INHIBITORS OF ALPHA-HEMOLYSIN OF STAPHYLOCOCCUS AUREUS” (Helmholtz-Zentrum Fur Infektionsforschung GmbH, priority 2021, published 2024).

What was measured:
[1] = biological target: S. aureus Alpha hemolysin (Staphylococcus aureus, UniProt P09616); experiment: cell-based; settings: A549-LDH Assay activity
[2] = biological target: hemolysin alpha from Staphylococcus aureus (Staphylococcus aureus, UniProt P09616); experiment: cell-based
Chain of hemolysin alpha from Staphylococcus aureus (P09616 27-319 limits assumed): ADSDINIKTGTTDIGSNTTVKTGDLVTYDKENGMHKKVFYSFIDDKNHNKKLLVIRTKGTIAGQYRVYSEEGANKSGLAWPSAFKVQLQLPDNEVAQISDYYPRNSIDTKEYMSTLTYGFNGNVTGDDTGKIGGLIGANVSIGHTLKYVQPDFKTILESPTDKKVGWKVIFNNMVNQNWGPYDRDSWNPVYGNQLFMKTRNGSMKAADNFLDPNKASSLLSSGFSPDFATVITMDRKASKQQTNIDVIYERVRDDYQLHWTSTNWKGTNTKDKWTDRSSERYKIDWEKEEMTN

Chain of S. aureus Alpha hemolysin (P09616 27-319 limits assumed): as above

Structure (SMILES)	EC50 [1] [nM]	EC50 [2] [nM]	IC50 [2] [nM]
Cc1cc2[nH]c(=O)c(=O)[nH]c2cc1S(=O)(=O)Nc1ccc(C2=CCCCC2)c(Cl)c1 [Compound 274, N-[3-chloro-4-(cyclohexen-1-yl)phenyl]-7-methyl-2,3-dioxo-1,4-dihydroquinoxaline-6-sulfonamide]	30 to 100	30 to 100	
Cc1cc2[nH]c(=O)c(=O)[nH]c2cc1S(=O)(=O)Nc1ccc(-c2cccc(C(F)(F)F)c2)c(Cl)c1 [Compound 316, N-[3-chloro-4-[3-(trifluoromethyl)phenyl]phenyl]-7-methyl-2,3-dioxo-1,4-dihydroquinoxaline-6-sulfonamide]	1000 to 6000	30 to 100	
Cc1cc2[nH]c(=O)c(=O)[nH]c2cc1S(=O)(=O)Nc1ccc(-c2cccc(C#N)c2)c(Cl)c1 [Compound 318, N-[3-chloro-4-(3-cyanophenyl)phenyl]-7-methyl-2,3-dioxo-1,4-dihydroquinoxaline-6-sulfonamide]	100 to 1000	30 to 100	
CN(C)c1cccc(-c2ccc(NS(=O)(=O)c3cc4[nH]c(=O)c(=O)[nH]c4cc3F)cc2Cl)c1 [Compound 34, N-(2-chloro-3′-(dimethylamino)-[1,1′-biphenyl]-4-yl)-7-fluoro-2,3-dioxo-1,2,3,4-tetrahydroquinoxaline-6-sulfonamide]	100 to 1000		< 30
O=c1[nH]c2cc(F)c(S(=O)(=O)Nc3ccc(C4CCCCC4)cc3)cc2[nH]c1=O [Compound 71, N-(4-cyclohexylphenyl)-7-fluoro-2,3-dioxo-1,2,3,4-tetrahydroquinoxaline-6-sulfonamide]	100 to 1000		100 to 1000
Cc1cc2[nH]c(=O)c(=O)[nH]c2cc1S(=O)(=O)Nc1ccc(-c2ccc(C(N)=O)cc2)c(Cl)c1 [Compound 314, 4-[2-chloro-4-[(7-methyl-2,3-dioxo-1,4-dihydroquinoxalin-6-yl)sulfonylamino]phenyl]benzamide]	100 to 1000	100 to 1000	
Cc1cc2[nH]c(=O)c(=O)[nH]c2cc1S(=O)(=O)Nc1ccc(-c2ccc3[nH]c(=O)[nH]c3c2)c(Cl)c1 [Compound 294, N-[3-chloro-4-(2-oxo-1,3-dihydrobenzimidazol-5-yl)phenyl]-7-methyl-2,3-dioxo-1,4-dihydroquinoxaline-6-sulfonamide]	100 to 1000	100 to 1000	
Cc1cc(NS(=O)(=O)c2cc3[nH]c(=O)c(=O)[nH]c3cc2C)ccc1-c1ccccc1 [Compound 17, 7-methyl-N-(2-methyl-[1,1′-biphenyl]-4-yl)-2,3-dioxo-1,2,3,4-tetrahydroquinoxaline-6-sulfonamide]	< 30		< 30
CC(=O)c1ccccc1-c1ccc(NS(=O)(=O)c2cc3[nH]c(=O)c(=O)[nH]c3cc2C)cc1 [Compound 123, N-(2′-acetyl-[1,1′-biphenyl]-4-yl)-7-methyl-2,3-dioxo-1,2,3,4-tetrahydroquinoxaline-6-sulfonamide]	1000 to 6000		100 to 1000
[2H]C([2H])([2H])c1cc2[nH]c(=O)c(=O)[nH]c2cc1S(=O)(=O)Nc1ccc(-c2ccc(F)cc2)c(Cl)c1 [Compound 387, N-[3-chloro-4-(4-fluorophenyl)phenyl]-2,3-dioxo-7-(trideuteriomethyl)-1,4-dihydroquinoxaline-6-sulfonamide]	30 to 100	< 30	
O=c1[nH]c2cc(F)c(S(=O)(=O)Nc3ccc(-c4ccc(F)cc4)c(Cl)c3)cc2[nH]c1=O [Compound 18, N-(2-chloro-4′-fluoro-[1,1′-biphenyl]-4-yl)-7-fluoro-2,3-dioxo-1,2,3,4-tetrahydroquinoxaline-6-sulfonamide]	30 to 100		< 30
Cc1cc2[nH]c(=O)c(=O)[nH]c2cc1S(=O)(=O)Nc1ccc(-c2ccc3c(c2)OCCN3C)c(Cl)c1 [Compound 329, N-[3-chloro-4-(4-methyl-2,3-dihydro-1,4-benzoxazin-7-yl)phenyl]-7-methyl-2,3-dioxo-1,4-dihydroquinoxaline-6-sulfonamide]	1000 to 6000	100 to 1000	
Cc1cc2[nH]c(=O)c(=O)[nH]c2cc1S(=O)(=O)Nc1ccc(-c2cc(Cl)cc(Cl)c2)c(Cl)c1 [Compound 315, N-[3-chloro-4-(3,5-dichlorophenyl)phenyl]-7-methyl-2,3-dioxo-1,4-dihydroquinoxaline-6-sulfonamide]	1000 to 6000	100 to 1000	
Cc1cc2[nH]c(=O)c(=O)[nH]c2cc1S(=O)(=O)Nc1ccc(-c2ccn3ccnc3c2)c(Cl)c1 [Compound 336, N-(3-chloro-4-imidazo[1,2-a]pyridin-7-yl-phenyl)-7-methyl-2,3-dioxo-1,4-dihydroquinoxaline-6-sulfonamide]	100 to 1000	30 to 100	
Cc1cc2[nH]c(=O)c(=O)[nH]c2cc1S(=O)(=O)Nc1ccc(C2CCCCC2)cc1 [Compound 86, N-(4-cyclohexylphenyl)-7-methyl-2,3-dioxo-1,2,3,4-tetrahydroquinoxaline-6-sulfonamide]	100 to 1000		100 to 1000
C#Cc1ccc(NS(=O)(=O)c2cc3[nH]c(=O)c(=O)[nH]c3cc2C)cc1 [Compound 130, N-(4-ethynylphenyl)-7-methyl-2,3-dioxo-1,2,3,4-tetrahydroquinoxaline-6-sulfonamide]	100 to 1000		100 to 1000

Structure (SMILES)	EC50 [1] [nM]	EC50 [2] [nM]	IC50 [2] [nM]
O=c1[nH]c2cc(Cl)c(S(=O)(=O)Nc3ccc(-c4ccc(F)c(Cl)c4F)c(Cl)c3)cc2[nH]c1=O [Compound 105, 7-chloro-N-(2,3′-dichloro-2′,4′-difluoro-[1,1′-biphenyl]-4-yl)-2,3-dioxo-1,2,3,4-tetrahydroquinoxaline-6-sulfonamide]	100 to 1000		100 to 1000
O=c1[nH]c2cc(F)c(S(=O)(=O)Nc3ccc(OC(F)(F)F)cc3)cc2[nH]c1=O [Compound 147, 7-fluoro-2,3-dioxo-N-(4-(trifluoromethoxy)phenyl)-1,2,3,4-tetrahydroquinoxaline-6-sulfonamide]	100 to 1000		100 to 1000
Cc1cc2[nH]c(=O)c(=O)[nH]c2cc1S(=O)(=O)Nc1ccc(-c2ccc3cccnc3c2)c(C(F)(F)F)c1 [Compound 365, 7-methyl-2,3-dioxo-N-[4-(7-quinolyl)-3-(trifluoromethyl)phenyl]-1,4-dihydroquinoxaline-6-sulfonamide]	100 to 1000	< 30	
Cc1cc2[nH]c(=O)c(=O)[nH]c2cc1S(=O)(=O)Nc1ccc(-c2ccc3cn[nH]c3c2)c(Cl)c1 [Compound 370, N-[3-chloro-4-(1H-indazol-6-yl)phenyl]-7-methyl-2,3-dioxo-1,4-dihydroquinoxaline-6-sulfonamide]	< 30	< 30	
Cc1cc2[nH]c(=O)c(=O)[nH]c2cc1S(=O)(=O)Nc1ccc(-c2ccc(OC(F)(F)F)cc2)c(Cl)c1 [Compound 277, N-[3-chloro-4-[4-(trifluoromethoxy)phenyl]phenyl]-7-methyl-2,3-dioxo-1,4-dihydroquinoxaline-6-sulfonamide]	100 to 1000	100 to 1000	
Cc1cc2[nH]c(=O)c(=O)[nH]c2cc1S(=O)(=O)Nc1ccc(-c2cncc(Cl)c2)c(Cl)c1 [Compound 189, N-(3-chloro-4-(5-chloropyridin-3-yl)phenyl)-7-methyl-2,3-dioxo-1,2,3,4-tetrahydroquinoxaline-6-sulfonamide]			30 to 100
O=c1[nH]c2cc(F)c(S(=O)(=O)Nc3ccc4ccccc4c3)cc2[nH]c1=O [Compound 95, 7-fluoro-N-(naphthalen-2-yl)-2,3-dioxo-1,2,3,4-tetrahydroquinoxaline-6-sulfonamide]			100 to 1000
Cc1cc2[nH]c(=O)c(=O)[nH]c2cc1S(=O)(=O)Nc1cnc(Br)c(Cl)c1 [Compound 236, N-(6-bromo-5-chloropyridin-3-yl)-7-methyl-2,3-dioxo-1,2,3,4-tetrahydroquinoxaline-6-sulfonamide]		1000 to 3500	
Cc1cc2[nH]c(=O)c(=O)[nH]c2cc1S(=O)(=O)Nc1cc(C)c(-c2ccnn2C)c(C)c1 [Compound 188, N-(3,5-dimethyl-4-(1-methyl-1H-pyrazol-5-yl)phenyl)-7-methyl-2,3-dioxo-1,2,3,4-tetrahydroquinoxaline-6-sulfonamide]			1000 to 3500
Cc1cc2[nH]c(=O)c(=O)[nH]c2cc1S(=O)(=O)Nc1ccc(-c2ccc(F)cc2)c(S(C)(=O)=O)c1 [Compound 397, N-[4-(4-fluorophenyl)-3-methylsulfonyl-phenyl]-7-methyl-2,3-dioxo-1,4-dihydroquinoxaline-6-sulfonamide]		1000 to 3500	
CN(C)c1cc2[nH]c(=O)c(=O)[nH]c2cc1S(=O)(=O)Nc1ccc(OC(F)(F)F)cc1 [Compound 221, 7-(dimethylamino)-2,3-dioxo-N-(4-(trifluoromethoxy)phenyl)-1,2,3,4-tetrahydroquinoxaline-6-sulfonamide]		30 to 100	
CC(C)c1cc2[nH]c(=O)c(=O)[nH]c2cc1S(=O)(=O)Nc1ccc(C2CC2)cc1 [Compound 153, N-(4-cyclopropylphenyl)-7-isopropyl-2,3-dioxo-1,2,3,4-tetrahydroquinoxaline-6-sulfonamide]			100 to 1000
Cc1cc2[nH]c(=O)c(=O)[nH]c2cc1S(=O)(=O)Nc1ccc(N2CCOCC2C)c(Cl)c1 (centres unmarked) [Compound 201, N-(3-chloro-4-(3-methylmorpholino)phenyl)-7-methyl-2,3-dioxo-1,2,3,4-tetrahydroquinoxaline-6-sulfonamide]		100 to 1000	
Cc1cc2[nH]c(=O)c(=O)[nH]c2cc1S(=O)(=O)Nc1ccc(OC(F)(F)F)nc1 [Compound 223, 7-methyl-2,3-dioxo-N-(6-(trifluoromethoxy)pyridin-3-yl)-1,2,3,4-tetrahydroquinoxaline-6-sulfonamide]		100 to 1000	
Cc1ccc(-c2ccc(NS(=O)(=O)c3cc4[nH]c(=O)c(=O)[nH]c4cc3F)cc2Cl)o1 [Compound 158, N-(3-chloro-4-(5-methylfuran-2-yl)phenyl)-7-fluoro-2,3-dioxo-1,2,3,4-tetrahydroquinoxaline-6-sulfonamide]			100 to 1000
Cc1cc2[nH]c(=O)c(=O)[nH]c2cc1S(=O)(=O)Nc1cc(C)c(-c2ccncc2)c(C)c1 [Compound 131, N-(3,5-dimethyl-4-(pyridin-4-yl)phenyl)-7-methyl-2,3-dioxo-1,2,3,4-tetrahydroquinoxaline-6-sulfonamide]			100 to 1000
